Common to all, as to assay type: cell-based
Test [1] deals with adipose triglyceride lipase (ATGL). Put plainly: Western blot of lipolytic enzyme proteins in 3T3-L1 adipocytes. The settings on record: 2, 20 μg/ml, 1 h, FIGS. 13a, 13b. On the procedure: (§1) Whether the peptide of SEQ ID NO: 2 prepared in Preparation Example 1 promotes the expressions of lipolytic enzyme proteins in adipocytes was tested through protein expression analysis (western blot analysis).
(§2) When 3T3-L1 preadipocytes reached 80% confluence, they were seeded in a 6-well plate at 5×10^5 cells/well and used for the experiment. Two days after reaching confluence, the culture medium was replaced with a differentiation induction medium [DMEM medium containing 10% FBS, 1 μg/ml insulin, 0.5 mM isobutyl methyl xanthine (IBMX) (Sigma, USA), and 1 μM dexamethasone (Sigma, USA)], and differentiation into adipocytes was induced. Two days after induction, preadipocytes were cultured for two days in a medium containing 10% FBS and 10 μg/mL insulin, and then the medium was replaced with a medium containing 10% FBS every two days until preadipocytes differentiated into adipocytes. When differentiation was completed, the medium was replaced with a serum-free medium, and cells were cultured for four hours to induce starvation. Cells were divided into an untreated group (negative control), the peptide of Preparation Example 1 (2, 20 μg/ml)-treatment group, and the TNFα (20 nM)-treatment group (positive control), and then treated with the substances at predetermined concentrations and cultured for one hour. Then, the cells in each treatment group were lysed by adding a lysis buffer. After lysis, proteins obtained by centrifugation at 4° C. and 12,000 rpm for 30 minutes were quantified using a BCA kit. Proteins were subjected to sodium dodecyl sulfate-polyacrylamide gel electrophoresis (SDS-PAGE) and electrotransferred to a membrane. The protein-attached membrane was blocked with 5% skim milk treatment, and then the primary antibody was reacted overnight at 4° C. The membrane was washed with PBS-T, the secondary antibody was reacted at room temperature for one hour, the membrane was washed again with PBS-T, and then visualization was carried out by using Gel Doc (Bio-Rad, Hercules, CA, USA) with a western detection reagent (Elpis Biotech, Daejeon, Korea). […]
Background: In western blotting, separated proteins are transferred to a membrane and probed.

Test [2] relates to perilipin (PLIN). The description is as above. The settings on record: 2, 20 μg/ml, 1 h, FIGS. 13a, 13b. Here is the method:
as §1, §2

For test [3], the system named is phosphorylated hormone-sensitive lipase (pHSL). Described as above. The settings on record: 2, 20 μg/ml, 1 h, FIGS. 13a, 13b. On the procedure:
as §1, §2

For test [4], the system named is 3T3-L1 adipocytes. Put plainly: Glycerol release assay (lipolysis) in 3T3-L1 adipocytes. Particulars: 2, 20 μg/ml, 48 h, FIG. 14. Here is the method:
The release amount of glycerol, a lipolysis product, was analyzed to determine whether the peptide of SEQ ID NO: 2 prepared in Preparation Example 1 promotes lipolysis in adipocytes.
When 3T3-L1 preadipocytes reached 80% confluence, they were seeded in a 6-well plate at 5×10^5 cells/well and used for the experiment. Two days after reaching confluence, the culture medium was replaced with a differentiation induction medium [DMEM medium containing 10% FBS, 1 μg/ml insulin, 0.5 mM isobutyl methyl xanthine (IBMX) (Sigma, USA), and 1 μM dexamethasone (Sigma, USA)], and differentiation into adipocytes was induced. Two days after induction, preadipocytes were cultured for two days in a medium containing 10% FBS and 10 μg/mL insulin, and then the medium was replaced with a medium containing 10% FBS every two days until preadipocytes differentiated into adipocytes. When differentiation was completed, the medium was replaced with a serum-free medium, and cells were cultured for four hours to induce starvation. Cells were divided into an untreated group (negative control), the peptide of SEQ ID NO: 2 of Preparation Example 1 (2, 20 μg/ml)-treatment group, and the TNF-α (20 nM)-treatment group (positive control), and then treated with the substances at predetermined concentrations and cultured for 48 hours. Then, the supernatants were obtained. […]

Test [5] deals with phospho-AKT. Briefly: Western blot of insulin signals in 3T3-L1 adipocytes (peptide of SEQ ID NO: 2). Particulars: 2, 20 μg/ml, FIGS. 15a, 15b. Here is the method:
(§3) When 3T3-L1 preadipocytes reached 80% confluence, they were seeded in a 6-well plate at 5×10^5 cells/well and used for the experiment. Two days after reaching confluence, the culture medium was replaced with a differentiation induction medium [DMEM medium containing 10% FBS, 1 μg/ml insulin, 0.5 mM isobutyl methyl xanthine (IBMX) (Sigma, USA), and 1 μM dexamethasone (Sigma, USA)], and differentiation into adipocytes was induced. Two days after induction, preadipocytes were cultured for two days in a medium containing 10% FBS and 10 μg/mL insulin, and then the medium was replaced with a medium containing 10% FBS every two days until preadipocytes differentiated into adipocytes. When differentiation was completed, the medium was replaced with a serum-free medium, and cells were cultured for four hours to induce starvation. To the cells, each of rhTNF-α (2 nM), insulin (1 μg/ml), and the peptide of SEQ ID NO: 2 of Preparation Example 1 (2, 20 μg/ml) was added and the cells were cultured for one hour. The cells were cultured for 30 minutes, the cells of each treatment group were lysed by adding a lysis buffer, and then centrifuged at 4° C. and 12,000 rpm for 30 minutes. The obtained proteins were quantified using a BCA kit. Proteins were subjected to sodium dodecyl sulfate-polyacrylamide gel electrophoresis (SDS-PAGE) and electrotransferred to a membrane. The protein-attached membrane was blocked with 5% skim milk treatment, and then the primary antibody was reacted overnight at 4° C. The membrane was washed with PBS-T, the secondary antibody was reacted at room temperature for one hour, the membrane was washed again with PBS-T, and then visualization was carried out by using Gel Doc (Bio-Rad, Hercules, CA, USA) with a western detection reagent (Elpis Biotech, Daejeon, Korea). The antibodies used in the experiment are as follows: anti-phospho-IRS (Ser302) antibody (Cell signaling technology (CST), USA), anti-phospho-IRS (Tyr632) antibody (Cell signaling technology (CST), USA), anti-phospho-AKT antibody (Cell signaling technology (CST), USA), anti-phospho-AMPK antibody (Cell signaling technology (CST), USA), and anti-α-tubulin antibody (Santa Cruz Biotechnology, USA). […] In addition, it was confirmed that when the peptide of the present invention was treated, the phosphorylation of AMPK, an insulin sensitivity-increasing signaling protein, increased. Meanwhile, it was confirmed that phosphorylation of Ser302 of an insulin receptor substrate (IRS) decreased under an insulin resistance-inducing environment by the treatment of the present peptide, and thus insulin resistance was inhibited.

Test [6] relates to phospho-AMPK. The description is as above. Particulars: 2, 20 μg/ml, FIGS. 15a, 15b. On the procedure:
as §3

The test system of test [7] is phospho-IRS (Ser302). The description is as above. Particulars: rhTNF-α 2 nM, 2, 20 μg/ml, FIGS. 15a, 15b. Here is the method: as §3
Test [8] relates to phospho-IRS (Tyr632). The test is described as above. Particulars: 2, 20 μg/ml, FIGS. 15a, 15b. Here is the method:
as §3

Consider 1 sequence from US20250206778A1, “PEPTIDE HAVING ANTIDIABETIC ACTIVITY, PEPTIDE COMPLEX, AND USE THEREOF” (CAREGEN CO., LTD., priority 2022, published 2025).

KGSATGWMA [peptide of SEQ ID NO: 2]: the “expression of adipose triglyceride lipase (ATGL)” value in test [1] was “increased”. Besides, the “expression of perilipin (PLIN)” value in test [2] is recorded as “increased”. Further, the “expression of phosphorylated hormone-sensitive lipase (pHSL)” value in test [3] is on record as “increased”. Also, in test [4], the “release amount of glycerol, a lipolysis product” value was “increased in a treated peptide concentration-dependent manner”. Also, the “activation of phosphorylation-AKT” value in test [5] is recorded as “promoted”. Moreover, in test [6], the “phosphorylation of AMPK” value was “increased”. The “phosphorylation of Ser302 of insulin receptor substrate (IRS) under an insulin resistance-inducing environment” value in test [7] is reported as “decreased”. Moreover, the “phosphorylation of Tyr632 of insulin receptor substrate (IRS)” value in test [8] was “promoted”.
